The source of these data is patent publication US12662491B2 (Redona Therapeutics, Inc., priority 2020, dated 2026).

Usually IC50 stands for the concentration that gives 50% inhibition.

The target in the experiment is T1, Zcchc11 enzyme (Homo sapiens, UniProt Q5TAX3).
T1 construct: made in house; host or cells: HEK293 cells (Zcchc11); E. coli Rosetta II (LIN28A)
T1 sequence (Q5TAX3 212-1420): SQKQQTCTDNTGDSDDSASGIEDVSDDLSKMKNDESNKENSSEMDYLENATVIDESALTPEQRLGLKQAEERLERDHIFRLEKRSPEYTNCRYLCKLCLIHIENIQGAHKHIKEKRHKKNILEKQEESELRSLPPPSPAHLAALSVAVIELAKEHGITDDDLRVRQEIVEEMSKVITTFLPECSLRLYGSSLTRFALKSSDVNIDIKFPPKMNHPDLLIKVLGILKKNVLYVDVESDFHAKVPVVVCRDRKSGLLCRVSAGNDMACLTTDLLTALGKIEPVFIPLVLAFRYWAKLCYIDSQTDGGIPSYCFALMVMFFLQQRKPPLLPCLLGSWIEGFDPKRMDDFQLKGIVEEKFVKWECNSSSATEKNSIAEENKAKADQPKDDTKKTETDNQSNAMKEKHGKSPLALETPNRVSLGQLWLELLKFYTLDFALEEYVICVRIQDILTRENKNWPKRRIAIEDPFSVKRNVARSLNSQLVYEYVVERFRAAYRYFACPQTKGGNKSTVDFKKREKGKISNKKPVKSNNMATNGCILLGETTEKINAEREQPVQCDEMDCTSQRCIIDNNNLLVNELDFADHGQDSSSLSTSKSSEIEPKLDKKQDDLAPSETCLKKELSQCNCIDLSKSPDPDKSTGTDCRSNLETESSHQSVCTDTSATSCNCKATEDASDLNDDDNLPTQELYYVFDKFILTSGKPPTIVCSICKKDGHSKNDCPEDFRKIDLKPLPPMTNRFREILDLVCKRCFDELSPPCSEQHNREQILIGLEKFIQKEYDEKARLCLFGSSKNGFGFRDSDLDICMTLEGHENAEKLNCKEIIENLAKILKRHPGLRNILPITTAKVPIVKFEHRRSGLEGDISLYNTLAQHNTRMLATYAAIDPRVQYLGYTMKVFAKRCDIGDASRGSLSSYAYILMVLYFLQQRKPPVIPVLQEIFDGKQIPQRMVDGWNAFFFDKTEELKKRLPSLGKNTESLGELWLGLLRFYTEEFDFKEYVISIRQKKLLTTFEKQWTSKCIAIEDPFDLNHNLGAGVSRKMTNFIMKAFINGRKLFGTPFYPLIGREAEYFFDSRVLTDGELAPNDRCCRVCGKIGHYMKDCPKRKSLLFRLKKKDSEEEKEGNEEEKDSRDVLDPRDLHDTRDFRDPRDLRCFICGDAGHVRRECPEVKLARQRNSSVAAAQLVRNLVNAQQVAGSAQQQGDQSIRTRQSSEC
In words: TUTase assay (Zcchc11 assay, Lin28a-dependent polyuridylation of pre-let-7). The format is biochemical. The following applies: Lin28a-dependent Zcchc11 (Z11) TUTase activity; read-out: Potency Lin28a-dep Z11 IC50. The procedure, abridged:
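LIN28A (10 nM) in pH 7.3 HEPES/KCl/MgCl2/DTT buffer was mixed with serially diluted compound, then 0.2 nM truncated human Zcchc11 and 2 nM labeled pre-let-7 were added for 30 min at room temperature. UTP (5 uM) and quench probe (4 nM) then started the reaction. Linear early rates gave IC50 values.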

Consider `CN(C)C1CN(c2ccc(-n3cc(C(=O)O)c(=O)c4cc(Cl)c(N5CC(C)(C)C[C@@H]5COc5ncccc5Cl)cc43)cn2)C1` [Compound 254, 6-chloro-7-[(2R)-2-[[(3-chloropyridin-2-yl)oxy]methyl]-4,4-dimethyl-pyrrolidin-1-yl]-1-[6-[3-(dimethyl-amino)azetidin-1-yl]pyridin-3-yl]-4-oxoquinoline-3-carboxylic acid], for which the IC50 was at most 1000 nM.

`CN(C)C1CN(c2ccc(-n3cc(C(=O)O)c(=O)c4cc(Cl)c(N5CCC[C@@H]5COc5ncc6nc[nH]c6c5Cl)cc43)cn2)C1` [Compound 255, 6-chloro-7-[(2R)-2-[({7-chloro-1H-imidazo [4,5-c]pyridin-6-yl}oxy)methyl]pyrrolidin-1-yl]-1-{6-[3-(dimethyl-amino)azetidin-1-yl]pyridin-3-yl}-4-oxoquinoline-3-carboxylic acid]: the half-inhibitory concentration (IC50) is at most 1000 nM.

Consider `CN(C)C1CN(c2ccc(-n3cc(C(=O)O)c(=O)c4cc(Cl)c(N5CCC[C@@H]5COc5nc6ccn(C)c6cc5Cl)cc43)cn2)C1` [Compound 256, 6-chloro-7-[(2R)-2-[([6-chloro-1-methyl-pyrrolo [3,2-b]pyridin-5-yl]oxy)methyl]pyrrolidin-1-yl]-1-[6-[3-(dimethyl-amino)azetidin-1-yl]pyridin-3-yl]-4-oxoquinoline-3-carboxylic acid], for which the IC50 is at most 1000 nM.

For the compound `COc1ccc(Cl)c(OCC2N(c3cc4c(cc3Cl)c(=O)c(C(=O)O)cn4-c3ccc(N4CC(N(C)C)C4)nc3)CCC2(C)C)n1` (centres unmarked) [Compound 257, 6-chloro-7-(2-{[(3-chloro-6-methoxy-pyridin-2-yl)oxy]methyl}-3,3-dimethyl-pyrrolidin-1-yl)-1-{6-[3-(dimethyl-amino)azetidin-1 yl]pyridin-3-yl}-4-oxoquinoline-3-carboxylic acid], the IC50 is at most 1000 nM.

As for `COc1ccc(Cl)c(OCC23CC(CN2c2cc4c(cc2Cl)c(=O)c(C(=O)O)cn4-c2ccc(N4CC(N(C)C)C4)nc2)C3)n1` [Compound 258, 6-chloro-7-(1-(((3-chloro-6-methoxy-pyridin-2-yl)oxy)methyl)-2-azabicyclo [2.1.1]hexan-2-yl)-1-(6-(3-(dimethyl-amino)azetidin-1-yl)pyridin-3-yl)-4-oxo-1,4-dihydro-quinoline-3-carboxylic acid], the IC50 lay within 1000 to 10000 nM.

With `CN(C)C1CN(c2ccc(-n3cc(C(=O)O)c(=O)c4cc(Cl)c(N5CCC(C)(C)C5COc5ncccc5Cl)cc43)cn2)C1` (centres unmarked) [Compound 259, 6-chloro-7-(2-(((3-chloropyridin-2-yl)oxy)methyl)-3,3-dimethyl-pyrrolidin-1-yl)-1-(6-(3-(dimethyl-amino)azetidin-1-yl)pyridin-3-yl)-4-oxo-1,4-dihydro-quinoline-3-carboxylic acid], the IC50 is at most 1000 nM.

Turning to `CN(C)C1CN(c2ccc(-n3cc(C(=O)O)c(=O)c4cc(C#N)c(N5C(COc6ncccc6F)CCC5(C)C)cc43)cn2)C1` (centres unmarked) [Compound 264, 6-cyano-1-(6-(3-(dimethyl-amino)azetidin-1-yl)pyridin-3-yl)-7-(5-(((3-fluoropyridin-2-yl)oxy)methyl)-2,2-dimethyl-pyrrolidin-1-yl)-4-oxo-1,4-dihydro-quinoline-3-carboxylic acid], the IC50 fell in the range of 1000 to 10000 nM.

For `COc1ccnc(OC[C@H]2C[C@H]3C[C@H]3N2c2cc3c(cc2F)c(=O)c(C(=O)O)cn3-c2ccc(N(C)C)nc2)c1Cl` [Compound 265, 7-((1R,3R,5R)-3-(((3-chloro-4-methoxy-pyridin-2-yl)oxy)methyl)-2-azabicyclo [3.1.0]hexan-2-yl)-1-(6-(dimethyl-amino)pyridin-3-yl)-6-fluoro-4-oxo-1,4-dihydro-quinoline-3-carboxylic acid], the IC50 is at most 1000 nM.

As for `COc1ccc(F)c(OC[C@H]2C[C@H]3C[C@H]3N2c2cc3c(cc2Cl)c(=O)c(C(=O)O)cn3-c2ccc(N(C)C)nc2)n1` [Compound 266, 6-chloro-1-(6-(dimethyl-amino)pyridin-3-yl)-7-((1R,3R,5R)-3-(((3-fluoro-6-methoxy-pyridin-2-yl)oxy)methyl)-2-azabicyclo [3.1.0]hexan-2-yl)-4-oxo-1,4-dihydro-quinoline-3-carboxylic acid], the IC50 is at most 1000 nM.

Consider `COc1ccnc(OC[C@H]2C[C@H]3C[C@H]3N2c2cc3c(cc2Cl)c(=O)c(C(=O)O)cn3-c2ccc(N(C)C)nc2)c1Cl` [Compound 267, 6-chloro-7-((1R,3R,5R)-3-(((3-chloro-4-methoxy-pyridin-2-yl)oxy)methyl)-2-azabicyclo [3.1.0]hexan-2-yl)-1-(6-(dimethyl-amino)pyridin-3-yl)-4-oxo-1,4-dihydro-quinoline-3-carboxylic acid], for which the IC50 is at most 1000 nM.

On to `COc1ccc(F)c(OC[C@H]2C[C@H]3C[C@H]3N2c2cc3c(cc2F)c(=O)c(C(=O)O)cn3-c2ccc(N(C)C)nc2)n1` [Compound 268, 1-(6-(dimethyl-amino)pyridin-3-yl)-6-fluoro-7-((1R,3R,5R)-3-(((3-fluoro-6-methoxy-pyridin-2-yl)oxy)methyl)-2-azabicyclo [3.1.0]hexan-2-yl)-4-oxo-1,4-dihydro-quinoline-3-carboxylic acid], for which the half-maximal inhibitory concentration (IC50) was at most 1000 nM.

`CN(C)C1CN(c2ccc(-n3cc(C(=O)O)c(=O)c4cc(Cl)c(N5[C@@H](COc6nc(OC7CC7)ccc6Cl)C[C@H]6C[C@H]65)cc43)cn2)C1` [Compound 270, 6-chloro-7-((1R,3R,5R)-3-(((3-chloro-6-cycloprop-oxypyridin-2-yl)oxy)methyl)-2-azabicyclo [3.1.0]hexan-2-yl)-1-(6-(3-(dimethyl-amino)azetidin-1-yl)pyridin-3-yl)-4-oxo-1,4-dihydro-quinoline-3-carboxylic acid]: the half-maximal inhibitory concentration (IC50) is at most 1000 nM.

In the case of `CN(C)C1CN(c2ccc(-n3cc(C(=O)O)c(=O)c4cc(Cl)c(N5C6CC6C[C@@H]5COc5nc(OC6CC6)ccc5Cl)cc43)cn2)C1` (stereo partly drawn) [Compound 271, 6-chloro-7-((3R)-3-(((3-chloro-6-cycloprop-oxypyridin-2-yl)oxy)methyl)-2-azabicyclo [3.1.0]hexan-2-yl)-1-(6-(3-(dimethyl-amino)azetidin-1-yl)pyridin-3-yl)-4-oxo-1,4-dihydro-quinoline-3-carboxylic acid], the IC50 was at most 1000 nM.

In the case of `CN(C)C1CN(c2ccc(-n3cc(C(=O)O)c(=O)c4cc(Cl)c(N5CCC(C)(C)C5COc5nc(OC6CC6)ccc5Cl)cc43)cn2)C1` (centres unmarked) [Compound 272, 6-chloro-7-(2-(((3-chloro-6-cycloprop-oxypyridin-2-yl)oxy)methyl)-3,3-dimethyl-pyrrolidin-1-yl)-1-(6-(3-(dimethyl-amino)azetidin-1-yl)pyridin-3-yl)-4-oxo-1,4-dihydro-quinoline-3-carboxylic acid], the IC50 is at most 1000 nM.

Regarding `CN(C)C1CN(c2ccc(-n3cc(C(=O)O)c(=O)c4cc(Cl)c(N5CCC[C@@H]5COc5nc6ncn(C)c6cc5Cl)cc43)cn2)C1` [Compound 273, (R)-6-chloro-7-(2-(((6-chloro-1-methyl-1H-imidazo [4,5-b]pyridin-5-yl)oxy)methyl)pyrrolidin-1-yl)-1-(6-(3-(dimethyl-amino)azetidin-1-yl)pyridin-3-yl)-4-oxo-1,4-dihydro-quinoline-3-carboxylic acid formic acid], the IC50 was at most 1000 nM.

Consider `CN(C)C1CN(c2ccc(-n3cc(C(=O)O)c(=O)c4cc(Cl)c(N5CC(OC6CC6)C[C@@H]5COc5ncccc5Cl)cc43)cn2)C1` (stereo partly drawn) [Compound 275, 6-chloro-7-((2R)-2-(((3-chloropyridin-2-yl)oxy)methyl)-4-cycloprop-oxypyrrolidin-1-yl)-1-(6-(3-(dimethyl-amino)azetidin-1-yl)pyridin-3-yl)-4-oxo-1,4-dihydro-quinoline-3-carboxylic acid], for which the IC50 is at most 1000 nM.

For the compound `CN(C)C1CN(c2ccc(-n3cc(C(=O)O)c(=O)c4cc(Cl)c(N5CC(c6cn(C)cn6)C[C@@H]5COc5ncccc5Cl)cc43)cn2)C1` (stereo partly drawn) [Compound 276, 6-chloro-7-((2R)-2-(((3-chloropyridin-2-yl)oxy)methyl)-4-(1-methyl-1H-imidazol-4-yl)pyrrolidin-1-yl)-1-(6-(3-(dimethyl-amino)azetidin-1-yl)pyridin-3-yl)-4-oxo-1,4-dihydro-quinoline-3-carboxylic acid], the half-maximal inhibitory concentration (IC50) is at most 1000 nM.
